Several values for one entry are separate records, joined by “and”; a condition that tells them apart may be missing. Identical values can stand only once.
Test: xn = mol fraction of the nth substance listed

C1CC[NH2+]C1.CCCCCCCC(=O)[O-] + O
viscosity [mPa·s], 101 kPa
Conditions | x1 = 0.1001 | x1 = 0.1939 | x1 = 0.3059 | x1 = 0.3999 | x1 = 0.5006 | x1 = 0.56 | x1 = 0.7293 | x1 = 0.8443
293.15 K | 19.1 | 30.6 | 44.2 | 53 | 58.7 | 61.3 | 67.6 | 70.6
298.15 K | 17 | 28.7 | 38.7 | 45.6 | 50.2 | 51.77 | 57.23 | 60.69
303.15 K | 15.36 | 22.52 | 32.46 | 37.47 | 40.91 | 42.49 | 46.05 | 48.99
308.15 K | 13.5 | 19.87 | 28.64 | 32.64 | 35.5 | 36.88 | 39.52 | 42.04
313.15 K | 11.56 | 17.09 | 24.55 | 27.65 | 29.82 | 30.62 | 32.72 | 34.71

C=CCC[n+]1ccn(CCCC)c1.[Br-] + O
viscosity [mPa·s], 101.33 kPa
Conditions | x1 = 0.0008989 | x1 = 0.00189 | x1 = 0.003585 | x1 = 0.005487 | x1 = 0.007167 | x1 = 0.008848
293.15 K | 1.032 | 1.064 | 1.12 | 1.182 | 1.24 | 1.289
298.15 K | 0.915 | 0.943 | 0.988 | 1.046 | 1.094 | 1.137
303.15 K | 0.818 | 0.844 | 0.883 | 0.931 | 0.975 | 1.011
308.15 K | 0.736 | 0.758 | 0.795 | 0.837 | 0.874 | 0.902
313.15 K | 0.667 | 0.687 | 0.719 | 0.757 | 0.789 | 0.815

C=O + O
viscosity [mPa·s], 101 kPa
Conditions | x1 = 0.03 | x1 = 0.062 | x1 = 0.13 | x1 = 0.2 | x1 = 0.29 | x1 = 0.37
293.15 K | 1.13 | 1.26 | 1.54 | 1.95 | – | –
303.15 K | 0.91 | 1.01 | 1.25 | 1.54 | – | –
313.15 K | 0.74 | 0.82 | 1.01 | 1.24 | – | –
323.15 K | 0.61 | 0.68 | 0.83 | 1.01 | 1.61 | 2.11

CC1(C)SC2C(NC(=O)C(N)c3ccccc3)C(=O)N2C1C(=O)O (stereo unspecified) + O
viscosity, 101 kPa
Conditions | x1 = 9e-06 | x1 = 1e-05 | x1 = 2e-05 | x1 = 3.2e-05 | x1 = 3.6e-05 | x1 = 4e-05 | x1 = 5e-05 | x1 = 6.8e-05 | x1 = 7e-05 | x1 = 7.2e-05
305.15 K | 0.7656 mPa·s | 0.7569 mPa·s | 0.7618 mPa·s and 0.763 mPa·s | 0.7637 mPa·s | 0.7729 mPa·s | 0.7702 mPa·s | 0.7649 mPa·s | 0.7656 mPa·s | 0.773 mPa·s | 0.7701 mPa·s
310.15 K | 0.7019 mPa·s | 0.6941 mPa·s | 0.6924 mPa·s and 0.6965 mPa·s | 0.6948 mPa·s | 0.6993 mPa·s | 0.6989 mPa·s | 0.6964 mPa·s | 0.6976 mPa·s | 0.7041 mPa·s | 0.7032 mPa·s
315.15 K | 0.6419 mPa·s | 0.6361 mPa·s | 0.6342 mPa·s and 0.6376 mPa·s | 0.6356 mPa·s | 0.6442 mPa·s | 0.6407 mPa·s | 0.6381 mPa·s | 0.6398 mPa·s | 0.6421 mPa·s | 0.6399 mPa·s

CCCCOCCOCCO + O
viscosity [mPa·s], 101 kPa
Conditions | 293.15 K | 303.15 K | 313.15 K | 323.15 K
x1 = 0.01221 | 1.52 | 1.15 | 0.908 | 0.738
x1 = 0.02709 | 2.26 | 1.64 | 1.27 | 1.02
x1 = 0.04539 | 3.18 | 2.31 | 1.76 | 1.38
x1 = 0.0689 | 4.35 | 3.1 | 2.32 | 1.79
x1 = 0.09981 | 5.57 | 3.93 | 2.88 | 2.19
x1 = 0.1428 | 6.78 | 4.74 | 3.44 | –
x1 = 0.2062 | 7.94 | – | 3.88 | 2.87
x1 = 0.3078 | 8.42 | 5.78 | – | 3.07
x1 = 0.4 | – | – | – | 3.195
x1 = 0.4037 | 8.24 | 5.75 | – | 3.08
x1 = 0.5015 | 7.84 | 5.55 | 4.04 | 3.02
x1 = 0.6107 | 7.35 | 5.27 | 3.86 | 2.91
x1 = 0.705 | 6.94 | 5 | 3.7 | 2.81
x1 = 0.7958 | 6.56 | 4.76 | 3.54 | 2.71
x1 = 0.8932 | 6.2 | 4.49 | 3.38 | 2.61

CCCCn1cc[n+](C)c1.F[B-](F)(F)F + O
101 kPa
Conditions | viscosity [mPa·s]
298.15 K, x2 = 0.1036 | 80.9
298.15 K, x2 = 0.6979 | 9.53
308.15 K, x2 = 0.6004 | 8.69
313.15 K, x2 = 0.5014 | 8.98
318.15 K, x2 = 0.4001 | 9.72
318.15 K, x2 = 0.5014 | 7.77
323.15 K, x2 = 0.4001 | 8.41

CO/N=C(\C(=O)N[C@@H]1C(=O)N2C(C(=O)O)=C(C[N+]3(C)CCCC3)CS[C@H]12)c1csc(N)n1.Cl.[Cl-] + O
Conditions | viscosity [mPa·s]
293.15 K, 101.33 kPa, x1 = 0.002414 | 1.235

O=C[C@H](O)[C@H](O)[C@H](O)CO + O
298.15 K, 101 kPa
Conditions | viscosity [mPa·s]
x1 = 0.003513 | 0.95
x1 = 0.01898 | 1.292

O=P([O-])(O)O.[Na+] + O
viscosity [mPa·s]
Conditions | 298.15 K | 303.15 K | 308.15 K | 313.15 K
101 kPa, x1 = 0.0018 | 0.9216 | 0.8373 | 0.7482 | –
101 kPa, x1 = 0.0054 | 0.9881 | 0.887 | 0.8017 | –
101 kPa, x1 = 0.0089 | 1.077 | 0.9691 | 0.8669 | –
101 kPa, x1 = 0.012 | 1.17 | 1.053 | 0.9301 | –
101 kPa, x1 = 0.016 | 1.284 | 1.151 | 1.008 | –
101.32 kPa, x1 = 0.1245 | 20.44 | – | – | –
101.32 kPa, x1 = 0.1772 | – | – | – | 28.59

CCCCOCCOCCO + O=C1CCCN1
298.15 K, 101 kPa
Conditions | viscosity [mPa·s]
x1 = 0.0024 | 14.13
x1 = 0.0056 | 14.02
x1 = 0.0086 | 13.96
x1 = 0.012 | 13.86
x1 = 0.0205 | 13.67
x1 = 0.0421 | 13.08
x1 = 0.0638 | 12.61
x1 = 0.0865 | 12.19
x1 = 0.1132 | 11.69
x1 = 0.1508 | 11.11
x1 = 0.1869 | 10.55
x1 = 0.2192 | 10.19
x1 = 0.2979 | 9.265
x1 = 0.3786 | 8.558
x1 = 0.3996 | 8.385
x1 = 0.4122 | 8.298
x1 = 0.4764 | 7.823
x1 = 0.5469 | 7.347
x1 = 0.6024 | 7.035
x1 = 0.6618 | 6.715
x1 = 0.7147 | 6.434
x1 = 0.7823 | 6.121
x1 = 0.8345 | 5.879
x1 = 0.8792 | 5.707
x1 = 0.9066 | 5.597
x1 = 0.9407 | 5.469
x1 = 0.9748 | 5.264
x2 = 0.0063 | 5.156

Reference: the CheMixHub viscosity set
